The values below come from patent publication US20200069691A1, “HETEROCYCLIC COMPOUNDS AS HIV PROTEASE INHIBITORS” (Merck Sharp & Dohme Corp., priority 2016, published 2020).

The assay has as its target T1, wild-type HIV-1 protease (Human immunodeficiency virus type 1 group M subtype B, UniProt P04585).
T1 construct: Escherichia coli expressed wild-type HIV-1 protease protein
In words: Assay for Inhibition of Microbial Expressed HIV Protease (peptide substrate cleavage, LC-MS/MS readout). The class given is biochemical. The following applies: E. coli expressed wild-type HIV-1 protease, mean of at least two independent experiments, read-out: HIV Pr Enzyme HIV1 PR IC50. Here is the method: Assay for Inhibition of Microbial Expressed HIV Protease
Inhibition of Escherichia coli expressed wild-type HIV-1 protease protein was carried out with a peptide substrate [Val-Ser-Gln-Asn-(βnaphtyl)Ala-Pro-Ile-Val]. The inhibitor compound was preincubated with HIV-1 protease enzyme in assay buffer (50 mM sodium acetate, pH 5.5, 100 mM NaCl, and 0.1% BSA) for 30 minutes at room temperature. Peptide substrate was added to 400 μM in a total volume of 20 μL containing […] HIV-1 protease (final) after which the reaction was incubated for 1 hour at 30° C. […] The extent of inhibition of the reaction was determined from the peak area of the products.
Data shown in the table reflects the mean of at least two independent experiments.

One may read the IC50 as the concentration needed to halve the response being measured. Consider `COCCn1cc(-c2ncc3c(n2)CN(C(=O)c2cc(CN4C(=N)N[C@](CCCC(F)(F)F)(c5ccc(F)cc5)C4=O)ccc2C(F)(F)F)C3)cn1` [Compound 20, (5R)-5-(4-fluorophenyl)-2-imino-3-[3-({2-[1-(2-methoxyethyl)-1H-pyrazol-4-yl]-5,7-dihydro-6H-pyrrolo[3,4-d]pyrimidin-6-yl}carbonyl)-4-(trifluoromethyl)benzyl]-5-(4,4,4-trifluorobutyl)imidazolidin-4-one], for which the IC50 was found to be 2.3 nM.

`C[S+]([O-])c1cccc(-c2ncc3c(n2)CN(C(=O)c2cc(CN4C(=N)N[C@](CCCC(F)(F)F)(c5ccc(F)cc5)C4=O)ccc2C(F)(F)F)C3)c1` (stereo partly drawn) [Compound 21, (5R)-5-(4-fluorophenyl)-2-imino-3-[3-({2-[3-(methylsulfmyl)phenyl]-5,7-dihydro-6H-pyrrolo[3,4-d]pyrimidin-6-yl}carbonyl)-4-(trifluoromethyl)benzyl]-5-(4,4,4-trifluorobutyl)imidazolidin-4-one]: the IC50 was determined as 2.31 nM. The value for `N=C1N[C@](CCCC(F)(F)F)(c2ccc(F)cc2)C(=O)N1Cc1ccc(C(F)(F)F)c(C(=O)N2Cc3cnc(-c4cccc5[nH]ncc45)nc3C2)c1` [Compound 22, (5R)-5-(4-fluorophenyl)-2-imino-3-[3-{[2-(1H-indazol-4-yl)-5,7-dihydro-6H-pyirolo[3,4-d]pyrimidin-6-yl]carbonyl}-4-(trifluoromethyl)benzyl]-5-(4,4,4-trifluorobutyl)imidazolidin-4-one] was 2.32 nM.

Take `CC(C)CCC(c1ccc(C(F)(F)F)c(C(=O)N2CCn3c(nnc3C(F)(F)F)C2)c1)N1C(=N)N[C@](CCC(C)C)(c2ccccc2)C1=O` (stereo partly drawn) [Compound 23, (5R)-2-imino-5-(3-methylbutyl)-3-{4-methyl-1-[4-(trifluoromethyl)-3-{[3-(trifluoromethyl)-5,6-dihydro[1,2,4]triazolo[4,3-a]pyrazin-7(8H)-yl]carbonyl}phenyl]pentyl}-5-phenylimidazolidin-4-one]: the IC50 came to 2.38 nM. The value for `CS(=O)(=O)c1cccc(-c2ncc3c(n2)CN(C(=O)c2cc(CN4C(=N)N[C@](CCCC(F)(F)F)(c5ccc(F)cc5)C4=O)ccc2C(F)(F)F)C3)c1` [Compound 24, (5R)-5-(4-fluorophenyl)-2-imino-3-[3-({2-[3-(methylsulfonyl)phenyl]-5,7-dihydro-6H-pyrrolo[3,4-d]pyrimidin-6-yl}carbonyl)-4-(trifluoromethyl)benzyl]-5-(4,4,4-trifluorobutyl)imidazolidin-4-one] was 2.41 nM; that for `CN1CCN(c2cncc(-c3ncc4c(n3)CN(C(=O)c3cc(CN5C(=N)N[C@](CCCC(F)(F)F)(c6ccc(F)cc6)C5=O)ccc3C(F)(F)F)C4)c2)CC1` [Compound 25, (5R)-5-(4-fluorophenyl)-2-imino-3-[3-({2-[5-(4-methylpiperazin-1-yl)pyridin-3-yl]-5,7-dihydro-6H-pyirolo[3,4-d]pyrimidin-6-yl}carbonyl)-4-(trifluoromethyl)benzyl]-5-(4,4,4-trifluorobutyl)imidazolidin-4-one] was 2.59 nM; that for `N=C1NC(CCC2CC2)(c2cccc(F)c2)C(=O)N1Cc1ccc(C(F)(F)F)c(C(=O)N2Cc3nccnc3C2)c1` (stereo not drawn) [Compound 26, 5-(2-cyclopropylethyl)-3-[3-(5,7-dihydro-6H-pyrrolo[3,4-b]pyrazin-6-ylcarbonyl)-4-(trifluoromethyl)benzyl]-5-(3-fluorophenyl)-2-iminoimidazolidin-4-one] was 2.85 nM. As for `Cc1n[nH]cc1-c1ncc2c(n1)CN(C(=O)c1cc(CN3C(=N)N[C@](CCCC(F)(F)F)(c4ccc(F)cc4)C3=O)ccc1C(F)(F)F)C2` [Compound 27, (5R)-5-(4-fluorophenyl)-2-imino-3-[3-{[2-(3-methyl-1H-pyrazol-4-yl)-5,7-dihydro-6H-pyrrolo[3,4-d]pyrimidin-6-yl]carbonyl}-4-(trifluoromethyl)benzyl]-5-(4,4,4-trifluorobutyl)imidazolidin-4-one], the IC50 worked out at 2.88 nM. `N=C1N[C@](CCCC(F)(F)F)(c2ccc(F)cc2)C(=O)N1Cc1ccc(C(F)(F)F)c(C(=O)N2Cc3cnc(-c4cnn5c4CCCC5)nc3C2)c1` [Compound 28, (5R)-5-(4-fluorophenyl)-2-imino-3-[3-{[2-(4,5,6,7-tetrahydropyrazolo-[1,5-a]pyridin-3-yl)-5,7-dihydro-6H-pyrrolo[3,4-d]pyrimidin-6-yl]carbonyl}-4-(trifluoromethyl)-benzyl]-5-(4,4,4-trifluorobutyl)imidazolidin-4-one]: the IC50 was found to be 3.04 nM. The value for `CC(C)CC(c1ccc(C(F)(F)F)c(C(=O)N2CCn3c(nnc3C(F)(F)F)C2)c1)N1C(=N)N[C@@](C[C@@H]2CCOC2)(c2ccc(F)cc2)C1=O` (stereo partly drawn) [Compound 29, (5S)-5-(4-fluorophenyl)-2-imino-3-{3-methyl-1-[4-(trifluoromethyl)-3-{[3-(trifluoromethyl)-5,6-dihydro-[1,2,4]triazolo[4,3-a]pyrazin-7(8H)-yl]carbonyl}phenyl]butyl}-5-[(3R)-tetrahydrofuran-3-ylmethyl]-imidazolidin-4-one] was 3.07 nM; that for `CC(C)CC[C@]1(c2ccccc2)NC(=N)N(Cc2ccc(C(F)(F)F)c(C(=O)N3Cc4nccnc4C3)c2)C1=O` [Compound 30, (5R)-3-[3-(5,7-dihydro-6H-pyrrolo[3,4-b]pyrazin-6-ylcarbonyl)-4-(trifluoromethyl)-benzyl]-2-iirrino-5-(3-methylbutyl)-5-phenylimidazolidin-4-one] was 3.08 nM.

`CC(C)CC[C@]1(c2ccccc2)NC(=N)N(C(CC(C)C)c2ccc(C(F)(F)F)c(C(=O)N3Cc4nccnc4C3)c2)C1=O` (stereo partly drawn) [Compound 31, (5R)-3-{1-[3-(5,7-dihydro-6H-pyrrolo[3,4-b]pyrazin-6-ylcarbonyl)-4-(trifluoromethyl)-phenyl]-3-methylbutyl}-2-imino-5-(3-methylbutyl)-5-phenylimidazolidin-4-one]: the IC50 came to 3.13 nM. The value for `N=C1N[C@](CCCC(F)(F)F)(c2ccc(F)cc2)C(=O)N1Cc1ccc(C(F)(F)F)c(C(=O)N2Cc3cnc(-c4ccc5ncnn5c4)nc3C2)c1` [Compound 32, (5R)-5-(4-fluorophenyl)-2-imino-3-{3-[(2-[1,2,4]triazolo[1,5-a]pyridin-6-yl-5,7-dihydro-6H-pyrrolo[3,4-d]pyrimidin-6-yl)carbonyl]-4-(trifluoromethyl)benzyl}-5-(4,4,4-trifluorobutyl)imidazolidin-4-one] was 3.21 nM.

Consider `N=C1N[C@](CCCC(F)(F)F)(c2ccc(F)cc2)C(=O)N1Cc1ccc(C(F)(F)F)c(C(=O)N2Cc3cnc(-c4cnn(CCN5CCOCC5)c4)nc3C2)c1` [Compound 33, (5R)-5-(4-fluorophenyl)-2-imino-3-[3-({2-[1-(2-morpholin-4-ylethyl)-1H-pyrazol-4-yl]-5,7-dihydro-6H-pyrrolo[3,4-d]pyrimidin-6-yl}carbonyl)-4-(trifluoromethyl)-benzyl]-5-(4,4,4-trifluorobutyl)-imidazolidin-4-one], for which the IC50 was 3.26 nM.

Turning to `N=C1N[C@](CCCC(F)(F)F)(c2ccc(F)cc2)C(=O)N1Cc1ccc(C(F)(F)F)c(C(=O)N2Cc3cnc(-c4cnn5c4CCC5)nc3C2)c1` [Compound 34, (5R)-3-[3-{[2-(5,6-dihydro-4H-pyrrolo[1,2-b]pyrazol-3-yl)-5,7-dihydro-6H-pyrrolo[3,4-d]pyrimidin-6-yl]carbonyl}-4-(trifluoromethyl)benzyl]-5-(4-fluorophenyl)-2-imino-5-(4,4,4-trifluorobutyl)imidazolidin-4-one], the IC50 turned out to be 3.36 nM.
